Experimental findings from US10842151B2, “Small molecule compound for enhancing plant stress resistance” (SHANGHAI INSTITUTES FOR BIOLOGICAL SCIENCES, CHINESE …, priority 2015, dated 2020) are described below.

The structures appear in SMILES notation.

For data set [1], the target named is T1, PYR1 + HAB1 (Arabidopsis thaliana, UniProt O49686).
T1 sequence (O49686 1-191): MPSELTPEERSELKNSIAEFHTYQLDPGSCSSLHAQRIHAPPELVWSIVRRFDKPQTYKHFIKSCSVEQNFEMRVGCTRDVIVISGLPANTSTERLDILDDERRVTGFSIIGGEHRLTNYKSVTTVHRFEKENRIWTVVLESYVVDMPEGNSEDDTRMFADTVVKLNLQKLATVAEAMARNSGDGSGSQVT
T1 sequence (Q9CAJ0 172-511 partner): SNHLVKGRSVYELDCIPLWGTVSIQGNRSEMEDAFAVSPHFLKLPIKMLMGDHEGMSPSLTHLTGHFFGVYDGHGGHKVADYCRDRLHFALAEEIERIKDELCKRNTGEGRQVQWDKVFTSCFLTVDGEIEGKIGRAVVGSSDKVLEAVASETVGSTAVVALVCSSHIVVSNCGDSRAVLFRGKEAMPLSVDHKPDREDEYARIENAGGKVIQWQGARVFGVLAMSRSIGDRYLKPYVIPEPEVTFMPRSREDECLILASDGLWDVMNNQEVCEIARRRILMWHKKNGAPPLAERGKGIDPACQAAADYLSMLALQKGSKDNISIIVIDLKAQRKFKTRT
As to the kind of experiment: AlphaScreen experiment, PYR1 + HAB1. The data set is classed as binding. As to conditions: column 2; number in brackets; read-out: Half maximum effect concentration EC50 (PYR1 + HAB1). How it is done: (§1) After incubating for 1.5 hours at room temperature in the dark, it was placed into an Envision Plate Reader (available from Perkin Elmer) under the programmed AlphaScreen procedure for readings.
A general note: Bead proximity is the source of the signal in Alpha formats.

In data set [2] the test system is soybean GmPYL3 and GmPYL6 + Arabidopsis AtHAB1. Kind of data set: AlphaScreen experiment with soybean GmPYL receptors. The data set is classed as binding. As to conditions: FIG. 9. Here is the method:
as §1

Data set [3] relates to Arabidopsis thaliana Col-0 ecotype seeds. Kind of data set: Seed germination, Col-0. The settings on record: 1 μM. Format: in vivo. From the text:
Two lines of plant were sown simultaneously on a single medium of 6 cm diameter, with 15 seeds sown for each line and 4 replicates for each compound. […]

Data set [4] deals with Arabidopsis ABA synthesis defective mutant aba2-1. Format: in vivo, Arabidopsis thaliana. The settings on record: 5 μM sprayed; after 4 days; vs DMSO.
For data set [5], the system named is soybean Williams 82. Kind of data set: Soybean leaf transpiration experiment (thermal imaging). The data set is classed as in vivo. The settings on record: 50 μM sprayed, 0.2 μmol per plant; after three days; vs DMSO. Here is the method:
After three weeks of continuous watering, 0.05% tween-20 and corresponding concentrations of DMSO (control)/compound (+)-ABA/0918/1127 were sprayed onto the plants in a single administration with an amount of 1.2 ml/pot. Images were taken daily using the FLIR A655sc thermal imaging camera at the same time before and after spraying. The Williams 82 ecotype was used in soybean leaf transpiration experiments for compounds 0604c, 0918 and 1127 and was long-day cultured at 26° C. After the plants grew and had 3 leaves in each of 3 groups, 0.05% tween-20 and 50 μM DMSO (control)/(+)-ABA/0604c/0918/1127 compounds were sprayed in a single administration with an amount of 4 ml/pot. Images were taken daily using the FLIR A655sc thermal imaging camera at the same time before and after spraying.
Leaf transpiration experiments of soybean and cotton for compound 0720B were carried out at 26° C. with long-day lighting. 16 days and 23 days after sowing, a solution containing 0.1% tween-20 and corresponding concentration of (+)-ABA, or 0720B compound or 0.1% Tween-20 and 0.05% DMSO (control) was sprayed in an amount of 4 ml/pot. Images were taken daily using the FLIR A655sc thermal imaging camera at the same time before and after spraying.

For data set [6], the system named is Arabidopsis Col-0 ecotype. Kind of data set: Soil drought experiment, Arabidopsis. The data set is classed as in vivo, Arabidopsis thaliana. How it is done:
Seeds of Arabidopsis Col-0 ecotype were sterilized with NaClO and then sown on ½ MS solid medium at 4° C. for 3 days of vernalization. After 6 days of growing, the well-grown seedlings having uniform size were selected and transferred into 8×7×6 cm^3 pots. Each pot was filled with the same weight of soil and the same number of plants (six plants) was planted to reduce experimental error. All the pots were subjected to a short-day culture at 22° C. After two weeks, watering was stopped for drought treatment. […] The position of the flowerpot was changed every day during the process of drought to reduce the error caused by environmental factors. During the whole drought period, the solution was sprayed twice in total and photos were recorded regularly. The watering was resumed in about three weeks.

Data set [7] has as its system Yunnan Lily variety Siberia. Kind of data set: Flower preservative experiment. Format: in vivo. The settings on record: aqueous suspension 10 ppm (22.5 μM); after 20 days. Here is the method: The commercially available Yunnan Lily varieties “Siberia” biennial buds were used for test, wherein each branch had 5 buds and 10 leaves, and there was 1 branch per bottle. The branch having buds was inserted into a water suspension preparation containing 10 ppm (22.5 μM) of AMX compound 1127 or into tap water. The flower status was recorded before and after 20 days of treatment.

The test system of data set [8] is Salmonella typhimurium TA98 and TA100. Kind of data set: Bacterial reverse mutation experiment. The data set is classed as cell-based. As to conditions: all doses; -S9. Here is the method:
The test substance used in the experiment was AMX compound 1127.
Two strains of Salmonella typhimurium, TA98 and TA100, were used in the bacterial reverse mutation experiment. The experiment was carried out by using standard plate incorporation method under a condition of non-metabolic activation system (−S9). There were totally 7 doses of […] as well as a negative control and a positive control.

With `CCCN1C(=O)CCc2cc(NS(=O)(=O)Cc3c(F)c(F)c(C)c(F)c3F)ccc21` [Compound 1127], in data set [1], the EC50 worked out at 15 nM. The “affinities for soybean GmPYL proteins compared with ABA” value in data set [2] is listed as “significantly higher affinities”. Besides, the “inhibition effect on germination of Col-0 ecotype seeds compared with control compound” value in data set [3] is “significantly better inhibition effect”. Moreover, the “germination of Col-0 ecotype seeds” value in data set [3] (six days after seeding) was “could still inhibit germination of Col-0 ecotype seeds”. The leaf temperature entry in data set [4] was “still higher than that in the control group”. The leaf temperature result in data set [5] is given as “still significantly higher than that in the DMSO-sprayed control”. Further, the plant survival result in data set [6] (5 μM sprayed, 18 days after drought) is on record as “still survived”. In addition, in data set [6] (5 μM sprayed, after 20 days of drought), the plant growth result is listed as “still maintained good growth”. Besides, the “drought resistance compared with compound with fewer halogen atoms (0604c)” value in data set [6] (same concentration, after 2 weeks of drought, FIG. 8c) is “stronger drought resistance”. In data set [7], the flowers remained normal amounted to 60%, the leaf withering result is “no leave withered” and the leaves remained green was found to be 70%. The “bacterial toxicity to TA98 and TA100 strains” value in data set [8] is recorded as “no obvious bacterial toxicity”.
